Data as given in patent publication US7070965B1, “Small molecule anticancer compounds and related production process” (priority 1998, dated 2006).

Experiments:
K562 leukemia cells = assay: Apoptosis morphology, transmission electron microscope; type: cell-based, human; conditions: 60 μg/ml, 4 hours
Method: Human cancer cell lines DU-145 (prostate cancer), K562 (leukemia), HCT116 (colon cancer), H1688 (lung cancer), SUN423 (hepatocarcinoma), MCF7 (breast cancer), CRL-1687 (pancreatic cancer), and SUN-1 (gastric cancer) were obtained from American Type Culture Collection (ATCC). 30 ml blood was collected from a health person and normal peripheral mononuclear cells were separated by Ficoll separation solution (Sigma). All cells were maintained in RPMI 1640, DMEM, or McCoy medium supplemented with 10% FCS, […] streptomycin and 100 u/ml penicillin. Normal human peripheral mononuclear cells, K562 and SUN-1 were suspended cells. After spinning at 1,500 RPM for 5 min, supernatants were discharged and cells were resuspended and expended in fresh medium. The other tumor cell lines were adherent cells and were dispersed with 0.05% trypsin/0.01% EDTA (Irvine Scientific, CA) for expansion. Cells were seeded in T75 flasks at 2×10^6 cells/flask in culture medium supplemented with 10% fetal bovine serum and incubated overnight at 37° C. with 5% CO2. The adherent cells attached to the plate were striped with disposable cell scrapers (Fisher Scientific) after treated either with 1% iso-C15, anteiso-C15 or control solution for 1, 2, 4, 8 and 24 hours and then combined with respective float cells. […]

[1] = system: K562 human leukemia cells; assay: Flow cytometry annexin V / PI apoptosis detection; type: cell-based; conditions: 30 μg/ml, 24 hours
Method: (§1) Human cancer cell lines DU-145 (prostate cancer), K562 (leukemia), HCT116 (colon cancer), H1688 (lung cancer), SUN423 (hepatocarcinoma), MCF7 (breast cancer), CRL-1687 (pancreatic cancer), and SUN-1 (gastric cancer) were obtained from American Type Culture Collection (ATCC). 30 ml blood was collected from a health person and normal peripheral mononuclear cells were separated by Ficoll separation solution (Sigma). All cells were maintained in RPMI 1640, DMEM, or McCoy medium supplemented with 10% FCS, […] streptomycin and 100 u/ml penicillin. Normal human peripheral mononuclear cells, K562 and SUN-1 were suspended cells. After spinning at 1,500 RPM for 5 min, supernatants were discharged and cells were resuspended and expended in fresh medium. The other tumor cell lines were adherent cells and were dispersed with 0.05% trypsin/0.01% EDTA (Irvine Scientific, CA) for expansion. Cells were seeded in T75 flasks at 2×10^6 cells/flask in culture medium supplemented with 10% fetal bovine serum and incubated overnight at 37° C. with 5% CO2. The adherent cells attached to the plate were striped with disposable cell scrapers (Fisher Scientific) after treated either with 1% iso-C15, anteiso-C15 or control solution for 1, 2, 4, 8 and 24 hours and then combined with respective float cells. Cells were then prepared for flow cytometry analysis, in situ cell death detection, DNA fragmentation and Western blot assay followed the preparation methods for each assay. Cell pellets treated for 2 and 4 hr with either iso-C15 or control were also stored at −70° C. for future studies of gene regulation.
(§2) A flow cytometer (FACScan) with Consort 30 software for gating analysis (Becton Dickinson, San Jose, Calif.) was used. The Apoptosis Detection kit (R&D Systems) was used to quantitatively determine the percentage of cells undergoing apoptosis by virtue of their ability to bind annexin V and exclude propidium iodide (PI). Cells were washed in cold PBS twice and resuspended in binding buffer. Fluorescent-labeled annexin V and PI were added to the cells. The cells undergoing apoptosis, expressing phosphotidyiserine on the outer leaflet of cell membranes, would bind annexin V. The cells in later stage of apoptosis or necrosis, with a compromised cell membrane, would allow PI to bind to the cellular DNA. The resulting cells were immediately analyzed by flow cytometer equipped with a single laser emitting excitation light at 488 nm. The annexin V and PI generated signals can be detected in signal detector FL1 and FL2, respectively. […]

normal human PBLs = assay: Flow cytometry annexin V / PI apoptosis detection; type: cell-based; conditions: 60 μg/ml, 24 hours
Method: as §1, §2

[2] = system: K562 human leukemia cells; assay: Western blot analysis of caspase target proteins Lamin B and RB; type: cell-based; conditions: 1% iso-C15 (60 μg/ml)
Method: (§3) For Western blot assay, each cell pellet collected from 1% iso-C15 or control treated cultures was lysed in 150 μl lysis buffer with 0.5% NP-40, 0.5% deoxycholic acid and 1 mM PMSF. The cell lysates were mixed with equal volume 2× Laemmli buffer and boiled for 5 min before loaded into gel wells. Proteins were resolved in an 8% SDS-PAGE gel and transferred to nitrocellulose filter membrane. The filters were blocked with PBS-T (PBS with 0.1% Tween 20) containing 5% nonfat dry milk (Bio-Rad, Richmond, Calif.) for 1 hr and then incubated for 1 hr with proper dilution of one primary antibody in PBS-T containing 2% nonfat dry milk. The filters then were washed in PBS-T 5 min for 6 times and incubated with a 1:8000 dilution of HRP secondary antibody in PBS-T with 2% nonfat dry milk for 1 hr. After 6 washes in PBS-T, immune complexes were visualized on film using the ECL nonradioactive detection system (Amersham, Arlington Heights, Ill.). After detected with one primary antibody, the filter was striped with 0.1 mM Tris pH 7.5 and 0.05 mM β-metacapenanol at 50° C. for 30 min. The filters were washed in 300 ml PBS-T buffer for 10 min twice before blocking with PBS-T with 5% nonfat dry milk. The membranes were then reprobed with monoclonal mouse anti-human β-actin to determine the equal loading of protein for each well.
(§4) The cleavages of Lamin B, a caspase target protein, in apoptotic SNU-423 human hepatocellular carcinoma cells and K562 human leukemia cells were shown in FIGS. 14 and 15, respectively. The cells were treated with 1% control solution and 1% iso-C15 for the length of time indicated. Cell lysates were separated by SDS-PAGE. Lamin B was detected by immunoblotting with a monoclonal antibody. […] The Western blot analysis of RB protein in SNU-423 and K562 cells were shown in FIGS. 16 and 17, respectively.

[3] = system: SNU-423 human hepatocellular carcinoma cells; assay: as above; type: cell-based; conditions: 1% iso-C15 (60 μg/ml)
Method: as §3, §4

Determination of LD50 = type: in vivo
Method: 13-methyltetradecanoic acid (iso-C15) purchased from Sigma (St. Louis, Mo.) was prepared by dissolving in NaOH solution and then in 0.35% Tween 80 with pH7.5.
ICR mice weighing 20.5–22.5 g of both sexes were treated with iso-C15 i.p. qd×3 in test groups and with solvent of same dose as in a control group. The doses ranged from 10 to 800 mg/kg of iso-C15 and two mice were included in each dose group (10 mg/kg, 20 mg/kg, 40 mg/kg, 80 mg/kg, 160 mg/kg, and 800 mg/kg). The general condition of these mice were monitored daily for seven days.

## CC(C)CCCCCCCCCCCC(=O)O [iso-C15, 13-methyltetradecanoic acid]
K562 leukemia cells
  morphological changes indicative of apoptosis: exhibits typical apoptotic feature
[1]
  FL1/FL2 pattern (annexin V / PI), apoptosis: the majority of the cells were undergoing apoptosis
Normal human PBLs
  FL1/FL2 pattern (annexin V / PI), effect on normal lymphocytes: no significant effects
[2]
  Lamin B cleavage: cleaved 45 kDa products
  RB hypophosphorylation and cleavage: induced the change of hyperphosphorylated RB (pRB120/hyper) to hypophosphorylated form (pRB115/hypo)
[3]
  Lamin B cleavage: cleaved 45 kDa and 32 kDa products
  RB hypophosphorylation and cleavage: induced the change of hyperphosphorylated RB (pRB120/hyper) to hypophosphorylated form (pRB115/hypo)
Determination of LD50; both sexes, ICR, mouse, in vivo, ip
  LD50 at 7 days: > 800 mg/kg
Determination of LD50; i.p. qd×3, dose up to 800 mg/kg, monitored seven days
  mortality: No mice died
